# Source: article PMC7321065, “Discovery of New Schiff Bases Tethered Pyrazole Moiety: Design, Synthesis, Biological Evaluation, and Molecular Docking Study as Dual Targeting DHFR/DNA Gyrase Inhibitors with Immunomodulatory Activity” (Molecules, 2020)
# Where two headings read alike, the source gives them in different places.
# What was measured:
# [1] = system: hepatocellular carcinoma cell line (HepG2); experiment: Antiproliferative activity, MTT assay; assay type: cell-based, human; settings: Homo sapiens, HepG2, 48 h, read-out: IC50 HepG-2
# Experimental: (§1) 3-[4, 5-Dimethyl-2-thiazolyl)-2, 5-diphenyl-2 H-tetrazolium bromide (MTT) protocol is based on the cleavage of the tetrazolium salt by mitochondrial dehydrogenases in viable cells. Cells were dispensed in a 96 well sterile microplate (5 x 10^4 cells/well), and incubated at 37 °C with series of different concentrations, in DMSO, of each tested compound or Doxorubicin ® (positive control) for 48 h in a serum free medium prior to the MTT assay. After incubation, media were carefully removed, 40 µL of MTT (2.5 mg/mL) were added to each well and then incubated for an additional 4 h. The purple formazan dye crystals were solubilized by the addition of 200 µL of DMSO. The absorbance was measured at 590 nm using a SpectraMax® Paradigm® Multi-Mode microplate reader. The relative cell viability was expressed as the mean percentage of viable cells compared to the untreated control cells.
# (§2) All experiments were conducted in triplicate and repeated in three different days. All the values were represented as mean ± SD. IC 50s were determined by probit analysis using SPSS software program (SPSS
# [2] = system: mammary gland breast cancer cell line (MCF-7); experiment: Antiproliferative activity, MTT assay; assay type: cell-based, human; settings: Homo sapiens, MCF7, 48 h, read-out: IC50 MCF-7
# Experimental: as §1, §2
# Pseudomonas aeruginosa [3] = experiment: Inhibition zone, agar plate diffusion; assay type: cell-based; settings: read-out: Inhibition zone (IZ)
# Experimental: (§3) Antimicrobial activities of the newly formed Schiff bases (6a–d, 7a–d, 8a–d, and 9a–d) and reference drugs were evaluated against three Gram-positive, three Gram-negative, and two fungi strain at Al-Azhar University, Cairo, Egypt. The inhibition zones (IZ, in mm ± standard deviation) and the minimal inhibitory concentration (MIC) (μg/mL) were determined by the conventional paper disk diffusion method.
# (§4) In Vitro Antimicrobial Activities
# (§5) The antimicrobial activities inhibition zone (IZ, mm±standard deviation) of pyrazole Schiff bases ( 6a-d , 7a-d, 8a-d and 9a-d ) was measurement according to the agar plate diffusion method. Briefly, 100 µl of the […]
# (§6) […] of each sample (at 0.5 mg/mL) was added to each well (10 mm diameter holes cut in the agar gel). The plates were incubated for 24 h at 37 °C (for bacteria and yeast) and for 72 h at 27 °C (for filamentous fungi), each test was repeated three times. After incubation, the microorganism's growth was observed. […]
# (§7) drugs while Amphotericin B was used as standard antifungal drug. The resulting inhibition zone diameters were measured in millimeters and used as criterion for the antimicrobial activity. Solvent controls (DMSO) were included in every experiment as negative controls. DMSO was used for dissolving […]
# (§8) the tested microorganisms. […]
# Bacillus subtilis [4] = experiment: Inhibition zone, agar plate diffusion; assay type: cell-based; settings: read-out: Inhibition zone (IZ)
# Experimental: as §3, §4, §5, §6, §7, §8
# Escherichia coli [5] = experiment: Inhibition zone, agar plate diffusion; assay type: cell-based; settings: read-out: Inhibition zone (IZ)
# Experimental: as §3, §4, §5, §6, §7, §8
# Enterococcus faecalis [6] = experiment: Inhibition zone, agar plate diffusion; assay type: cell-based; settings: read-out: Inhibition zone (IZ)
# Experimental: as §3, §4, §5, §6, §7, §8
# Fusarium oxysporum [7] = experiment: Inhibition zone, agar plate diffusion; assay type: cell-based; settings: read-out: Inhibition zone (IZ)
# Experimental: as §3, §4, §5, §6, §7, §8
# (§9) Bacteria were grown on nutrient agar medium, while fungi and yeast were grown on Sabouraud agar medium. […]
# Salmonella typhi [8] = experiment: Inhibition zone, agar plate diffusion; assay type: cell-based; settings: Salmonella enterica, St, mm ± standard deviation, sample at 0.5 mg/mL, read-out: Inhibition zone (IZ)
# Experimental: as §3, §4, §5, §6, §7, §8, §9
# Candida albicans [9] = experiment: Inhibition zone, agar plate diffusion; assay type: cell-based; settings: read-out: Inhibition zone (IZ)
# Experimental: as §3, §4, §5, §6, §7, §8, §9
# Staphylococcus aureus [10] = experiment: Inhibition zone, agar plate diffusion; assay type: cell-based; settings: read-out: Inhibition zone (IZ)
# Experimental: as §3, §4, §5, §6, §7, §8, §9
# [11] = system: P. aeruginosa ATCC BAA-2111; experiment: Inhibition zone against MDRB, agar plate diffusion; assay type: cell-based
# Fusarium oxysporum [12] = experiment: MIC/MFC, paper disk diffusion; assay type: cell-based; settings: Fusarium oxysporum
# Experimental: as §3
# (§10) In Vitro Antimicrobial Activities […]
# (§11) DMSO was used for dissolving […]
# (§12) the tested microorganisms.
# (§13) The minimum inhibitory concentration (MIC), the minimum bactericidal concentration (MBC, µg/ml) and […]
# (§14) and 9b) were determined by the conventional technique termed paper disk diffusion, by applying paper […]
# (§15) Bacteria were grown on nutrient agar medium, while fungi and yeast were grown on Sabouraud agar medium. The purified streptomycin was dissolved in […]
# (§16) inoculated with test organism. Growth inhibition was examined after 24 hr. from incubation at 37 °C for bacteria and after 72 hr. incubation at 27 °C for fungi and yeast. Each test was repeated three times. MIC was expressed as the lowest concentration inhibiting test organism’s growth. […]
# Candida albicans [13] = experiment: MIC/MFC, paper disk diffusion; assay type: cell-based; settings: Candida albicans
# Experimental: as §3, §10, §11, §12, §13, §14, §15, §16
# [14] = system: S. aureus ATCC 43300 (MRSA); experiment: MIC/MBC against MDRB, paper disk diffusion; assay type: cell-based; settings: Staphylococcus aureus
# Source text: (§17) The inhibition zone (IZ, mm±standard deviation) of pyrazole Schiff bases ( 6b, 7b, 7c, 8a, 8d and 9b) was
# (§18) measurement according to the agar plate diffusion method against a panel of multidrug-resistant bacteria
# (MDRB). […]
# [15] = system: P. aeruginosa ATCC BAA-2111; experiment: MIC/MBC against MDRB, paper disk diffusion; assay type: cell-based; settings: Pseudomonas aeruginosa, ATCCBAA2111
# Source text: as §17, §18
# (MDRB). […]
# E. coli ATCC BAA-196 [16] = experiment: MIC/MBC against MDRB, paper disk diffusion; assay type: cell-based; settings: Escherichia coli, ATCCBAA196
# Source text: as §17, §18
# (MDRB). […]
# S. aureus ATCC 33591 [17] = experiment: MIC/MBC against MDRB, paper disk diffusion; assay type: cell-based; settings: Staphylococcus aureus, ATCC33591
# Source text: as §17, §18
# (MDRB). […]
# [18] = system: S. aureus ATCC 43300 (MRSA); experiment: Inhibition zone against MDRB, agar plate diffusion; assay type: cell-based
# Pseudomonas aeruginosa [19] = experiment: MIC/MBC, paper disk diffusion; assay type: cell-based; settings: Pseudomonas aeruginosa
# Experimental: as §3, §10, §11, §12, §13, §14, §15, §16
# Bacillus subtilis [20] = experiment: MIC/MBC, paper disk diffusion; assay type: cell-based
# Experimental: as §3, §10, §11, §12, §13, §14, §15, §16
# Salmonella typhi [21] = experiment: MIC/MBC, paper disk diffusion; assay type: cell-based; settings: Salmonella enterica, S. typhi
# Experimental: as §3, §10, §11, §12, §13, §14, §15, §16
# Escherichia coli [22] = experiment: MIC/MBC, paper disk diffusion; assay type: cell-based; settings: Escherichia coli
# Experimental: as §3, §10, §11, §12, §13, §14, §15, §16
# Enterococcus faecalis [23] = experiment: MIC/MBC, paper disk diffusion; assay type: cell-based
# Experimental: as §3, §10, §11, §12, §13, §14, §15, §16
# Staphylococcus aureus [24] = experiment: MIC/MBC, paper disk diffusion; assay type: cell-based; settings: Staphylococcus aureus
# Experimental: as §3, §10, §11, §12, §13, §14, §15, §16
# E. coli ATCC BAA-196 [25] = experiment: Inhibition zone against MDRB, agar plate diffusion; assay type: cell-based
# S. aureus ATCC 33591 [26] = experiment: Inhibition zone against MDRB, agar plate diffusion; assay type: cell-based
compound,measurement,setting,value
"COc1ccc(Nc2n[nH]c(N=Cc3c(C)n(C)n(-c4ccccc4)c3=O)c2C(=O)Nc2ccccc2)cc1 [6b, 5-((1,5-Dimethyl-3-oxo-2-phenyl-2,3-dihydro-1H-pyrazol-4-yl)methyleneamino)-3-(p-methoxyphenylamino)-N-phenyl-1H-pyrazole-4-carboxamide]",IC50,[1],3.42 ± 0.17 µM
same,IC50,[2],5.09 ± 0.52 µM
same,zone of inhibition at 500 µg/mL,Pseudomonas aeruginosa [3],24 ± 0.2 mm
same,zone of inhibition at 500 µg/mL,Bacillus subtilis [4],30 ± 0.5 mm
same,zone of inhibition at 500 µg/mL,Escherichia coli [5],25 ± 0.81 mm
same,zone of inhibition at 500 µg/mL,Enterococcus faecalis [6],29 ± 0.55 mm
same,zone of inhibition at 500 µg/mL,Fusarium oxysporum [7],18 ± 0.15 mm
same,zone of inhibition at 500 µg/mL,Salmonella typhi [8],20 ± 0.16 mm
same,zone of inhibition at 500 µg/mL,Candida albicans [9],22 ± 0.56 mm
same,zone of inhibition at 500 µg/mL,Staphylococcus aureus [10],24 ± 0.12 mm
same,Mean Diameter of Inhibition Zone against MDRB,[11],21 ± 0.66 mm
same,MFC,Fusarium oxysporum [12],88.8 µg/mL
same,MIC,Fusarium oxysporum [12],55.5 µg/mL
same,MFC,Candida albicans [13],53.1 µg/mL
same,MIC,Candida albicans [13],31.2 µg/mL
same,MBC,[14],11.9 µg/mL
same,MIC,[14],6.25 µg/mL
same,MBC,[15],16 µg/mL
same,MIC,[15],7.81 µg/mL
same,MBC,E. coli ATCC BAA-196 [16],7.41 µg/mL
same,MIC,E. coli ATCC BAA-196 [16],3.9 µg/mL
same,MBC,S. aureus ATCC 33591 [17],15.6 µg/mL
same,MIC,S. aureus ATCC 33591 [17],7.81 µg/mL
same,Mean Diameter of Inhibition Zone against MDRB,[18],21 ± 0.21 mm
same,MIC,Pseudomonas aeruginosa [19],31.2 µg/mL
same,MBC,Pseudomonas aeruginosa [19]; P. aeruginosa,53.1 µg/mL
same,Fold more potent than Tetracycline (MIC),Bacillus subtilis [20]; B. subtilis,4 fold
same,MIC,Bacillus subtilis [20]; Bacillus subtilis,7.81 µg/mL
same,MBC,"Bacillus subtilis [20]; Bacillus subtilis, B. subtilis",14.1 µg/mL
same,MIC,Salmonella typhi [21],15.6 µg/mL
same,MBC,Salmonella typhi [21]; read-out: MBC,28.1 µg/mL
same,MIC,Escherichia coli [22],62.5 µg/mL
same,MBC,Escherichia coli [22]; E. coli,87.5 µg/mL
same,MIC,Enterococcus faecalis [23],9.25 µg/mL
same,MBC,Enterococcus faecalis [23]; E. faecalis,18.5 µg/mL
same,MIC,Staphylococcus aureus [24],15.6 µg/mL
same,MBC,Staphylococcus aureus [24]; S. aureus,31.2 µg/mL
same,Mean Diameter of Inhibition Zone against MDRB,E. coli ATCC BAA-196 [25],25 ± 0.15 mm
"CCn1cc(C(=O)O)c(=O)c2cc(F)c(N3CCNCC3)cc21 [Norfloxacin, reference compound]",Mean Diameter of Inhibition Zone against MDRB,S. aureus ATCC 33591 [26],26 ± 0.5 mm
same,Mean Diameter of Inhibition Zone against MDRB,[11],24 ± 0.47 mm
same,MBC,"[14]; S. aureus ATCC 43300, read-out: MBC",2.81 µg/mL
same,MIC,"[14]; S. aureus ATCC 43300, read-out: MIC",1.25 µg/mL
same,MBC,"[15]; P. aeruginosa ATCC BAA-2111, read-out: MBC",4.69 µg/mL
same,MIC,"[15]; P. aeruginosa ATCC BAA-2111, read-out: MIC",3.13 µg/mL
same,MBC,"E. coli ATCC BAA-196 [16]; E. coli ATCC BAA-196, read-out: MBC",3.53 µg/mL
same,MIC,"E. coli ATCC BAA-196 [16]; E. coli ATCC BAA-196, read-out: MIC",1.57 µg/mL
same,MBC,"S. aureus ATCC 33591 [17]; S. aureus ATCC 33591, read-out: MBC",1.56 µg/mL
same,MIC,"S. aureus ATCC 33591 [17]; S. aureus ATCC 33591, read-out: MIC",0.78 µg/mL
same,Mean Diameter of Inhibition Zone against MDRB,[18],25 ± 0.50 mm
same,Mean Diameter of Inhibition Zone against MDRB,E. coli ATCC BAA-196 [25],27 ± 0.98 mm
